Publication PMC4461516 (Bioorganic & medicinal chemistry, 2015)
Like-named read-outs stand apart in the source and are kept apart here.

Legend:
behavioral toxicity = settings: rat, po; cited from earlier work
[1] = molecular target: T1, Na+ currents in CAD cells (mostly Nav1.7) (Mus musculus, UniProt Q62205); settings: read-out: Slow inactivation IC50, at −50 mV; cited from earlier work
[2] = tested on: subcutaneous Metrazol (scMet) seizure; settings: cited from earlier work
[3] = tested on: 6 Hz (32 mA) psychomotor seizure; assay: 6 Hz; assay type: in vivo, mice; settings: Mus musculus, ip, read-out: 6 Hz ED50
[4] = tested on: maximal electroshock seizure; assay: Maximal electroshock seizure; assay type: in vivo, mice; settings: Mus musculus, ip, read-out: MES ED50
[5] = Rotorod test for neurological impairment, mice ip; settings: mouse, in vivo
[6] = tested on: 6 Hz (32 mA) psychomotor seizure; settings: mice, ip, time (h) in brackets; cited from earlier work
[7] = tested on: maximal electroshock seizure; settings: rat, po, cited from earlier work
[8] = tested on: voltage-gated sodium channels (Nav1.1, Nav1.2, Nav1.3, Nav1.6) in rat embryonic cortical neurons; assay: Whole-cell patch-clamp of Na+ currents in rat embryonic cortical neurons; assay type: cell-based; settings: 10 μM, vs 0.1% DMSO control
CYP1A2 = molecular target: T2, CYP1A2 (Homo sapiens, UniProt P05177); assay: CYP450 inhibition panel: CYP1A2; assay type: in vitro ADME; settings: 10 μM; data not shown
T2 sequence (P05177 1-516): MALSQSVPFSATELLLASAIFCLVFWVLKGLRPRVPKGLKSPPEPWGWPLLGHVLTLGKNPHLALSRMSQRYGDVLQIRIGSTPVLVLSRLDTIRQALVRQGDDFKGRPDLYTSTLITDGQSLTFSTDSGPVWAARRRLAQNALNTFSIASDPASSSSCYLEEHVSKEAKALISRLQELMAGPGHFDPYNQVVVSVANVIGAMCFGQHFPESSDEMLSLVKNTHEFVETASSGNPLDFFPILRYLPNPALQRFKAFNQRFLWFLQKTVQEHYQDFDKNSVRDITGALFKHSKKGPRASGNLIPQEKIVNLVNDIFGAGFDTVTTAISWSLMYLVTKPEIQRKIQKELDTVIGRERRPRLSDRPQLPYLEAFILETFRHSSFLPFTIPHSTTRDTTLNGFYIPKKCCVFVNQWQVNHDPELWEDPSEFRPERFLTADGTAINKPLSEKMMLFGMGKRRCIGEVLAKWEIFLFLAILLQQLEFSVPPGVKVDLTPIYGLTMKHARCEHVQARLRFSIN

CYP2C9 = CYP2C9 (Homo sapiens, UniProt P11712); assay: CYP450 inhibition panel: CYP2C9; assay type: in vitro ADME; settings: 10 μM; data not shown
CYP2D6 = CYP2D6 (Homo sapiens, UniProt P10635); assay: CYP450 inhibition panel: CYP2D6; assay type: in vitro ADME; settings: 10 μM; data not shown
CYP2C8 = molecular target: T3, CYP2C8 (Homo sapiens, UniProt P10632); assay: CYP450 inhibition panel: CYP2C8; assay type: in vitro ADME; settings: 10 μM; data not shown
T3 sequence (P10632 1-490): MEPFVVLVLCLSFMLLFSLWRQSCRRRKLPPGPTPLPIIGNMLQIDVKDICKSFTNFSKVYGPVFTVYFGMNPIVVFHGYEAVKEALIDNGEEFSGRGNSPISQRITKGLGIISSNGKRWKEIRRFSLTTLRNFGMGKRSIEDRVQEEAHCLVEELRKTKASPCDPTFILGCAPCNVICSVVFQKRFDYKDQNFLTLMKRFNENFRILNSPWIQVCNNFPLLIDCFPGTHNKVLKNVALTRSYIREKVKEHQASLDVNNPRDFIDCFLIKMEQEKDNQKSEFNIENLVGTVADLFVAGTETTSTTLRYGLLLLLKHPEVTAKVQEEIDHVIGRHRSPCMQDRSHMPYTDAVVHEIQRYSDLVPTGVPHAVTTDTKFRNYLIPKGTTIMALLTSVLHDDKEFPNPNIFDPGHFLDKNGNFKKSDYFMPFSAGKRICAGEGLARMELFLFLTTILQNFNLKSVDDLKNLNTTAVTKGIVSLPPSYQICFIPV

[9] = molecular target: T1, Na+ currents in CAD cells (mostly Nav1.7); assay: Whole-cell patch-clamp of Na+ currents in CAD cells; assay type: cell-based; settings: any concentration tested, control V1/2 −19.5 ± 2.8 mV
hERG K+ channel = hERG K+ channel (Homo sapiens, UniProt Q12809); assay: hERG K+ channel activity; assay type: cell-based; settings: 30 μM; Patch Express; data not shown
CYP2B6 = molecular target: T4, CYP2B6 (Homo sapiens, UniProt P20813); assay: CYP450 inhibition panel: CYP2B6; assay type: in vitro ADME; settings: 10 μM; data not shown
T4 sequence (P20813 1-491): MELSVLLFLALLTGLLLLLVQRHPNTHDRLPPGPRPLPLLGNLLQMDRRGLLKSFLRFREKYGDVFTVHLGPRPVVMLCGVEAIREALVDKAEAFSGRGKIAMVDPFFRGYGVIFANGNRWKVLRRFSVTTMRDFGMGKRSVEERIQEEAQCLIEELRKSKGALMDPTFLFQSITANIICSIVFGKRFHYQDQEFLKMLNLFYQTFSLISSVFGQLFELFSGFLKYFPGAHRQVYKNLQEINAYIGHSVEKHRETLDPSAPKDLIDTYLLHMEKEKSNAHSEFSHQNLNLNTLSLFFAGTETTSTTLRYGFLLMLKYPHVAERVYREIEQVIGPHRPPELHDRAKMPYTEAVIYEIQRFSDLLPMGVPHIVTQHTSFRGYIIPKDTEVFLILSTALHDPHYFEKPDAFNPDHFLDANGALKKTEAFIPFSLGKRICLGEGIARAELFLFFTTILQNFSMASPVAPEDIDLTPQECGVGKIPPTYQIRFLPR

CYP2C19 = CYP2C19 (Homo sapiens, UniProt P33261); assay: CYP450 inhibition panel: CYP2C19; assay type: in vitro ADME; settings: 10 μM; data not shown
CYP3A4/5 = assay: CYP450 inhibition panel: CYP3A4/5; assay type: in vitro ADME, human; settings: 10 μM; data not shown
[10] = tested on: maximal electroshock seizure; settings: mice, ip; 95% CI in parentheses; cited from earlier work
[11] = tested on: maximal electroshock seizure; settings: rat, ip; 95% CI in parentheses; cited from earlier work

T1 sequence (Q62205 whole entry): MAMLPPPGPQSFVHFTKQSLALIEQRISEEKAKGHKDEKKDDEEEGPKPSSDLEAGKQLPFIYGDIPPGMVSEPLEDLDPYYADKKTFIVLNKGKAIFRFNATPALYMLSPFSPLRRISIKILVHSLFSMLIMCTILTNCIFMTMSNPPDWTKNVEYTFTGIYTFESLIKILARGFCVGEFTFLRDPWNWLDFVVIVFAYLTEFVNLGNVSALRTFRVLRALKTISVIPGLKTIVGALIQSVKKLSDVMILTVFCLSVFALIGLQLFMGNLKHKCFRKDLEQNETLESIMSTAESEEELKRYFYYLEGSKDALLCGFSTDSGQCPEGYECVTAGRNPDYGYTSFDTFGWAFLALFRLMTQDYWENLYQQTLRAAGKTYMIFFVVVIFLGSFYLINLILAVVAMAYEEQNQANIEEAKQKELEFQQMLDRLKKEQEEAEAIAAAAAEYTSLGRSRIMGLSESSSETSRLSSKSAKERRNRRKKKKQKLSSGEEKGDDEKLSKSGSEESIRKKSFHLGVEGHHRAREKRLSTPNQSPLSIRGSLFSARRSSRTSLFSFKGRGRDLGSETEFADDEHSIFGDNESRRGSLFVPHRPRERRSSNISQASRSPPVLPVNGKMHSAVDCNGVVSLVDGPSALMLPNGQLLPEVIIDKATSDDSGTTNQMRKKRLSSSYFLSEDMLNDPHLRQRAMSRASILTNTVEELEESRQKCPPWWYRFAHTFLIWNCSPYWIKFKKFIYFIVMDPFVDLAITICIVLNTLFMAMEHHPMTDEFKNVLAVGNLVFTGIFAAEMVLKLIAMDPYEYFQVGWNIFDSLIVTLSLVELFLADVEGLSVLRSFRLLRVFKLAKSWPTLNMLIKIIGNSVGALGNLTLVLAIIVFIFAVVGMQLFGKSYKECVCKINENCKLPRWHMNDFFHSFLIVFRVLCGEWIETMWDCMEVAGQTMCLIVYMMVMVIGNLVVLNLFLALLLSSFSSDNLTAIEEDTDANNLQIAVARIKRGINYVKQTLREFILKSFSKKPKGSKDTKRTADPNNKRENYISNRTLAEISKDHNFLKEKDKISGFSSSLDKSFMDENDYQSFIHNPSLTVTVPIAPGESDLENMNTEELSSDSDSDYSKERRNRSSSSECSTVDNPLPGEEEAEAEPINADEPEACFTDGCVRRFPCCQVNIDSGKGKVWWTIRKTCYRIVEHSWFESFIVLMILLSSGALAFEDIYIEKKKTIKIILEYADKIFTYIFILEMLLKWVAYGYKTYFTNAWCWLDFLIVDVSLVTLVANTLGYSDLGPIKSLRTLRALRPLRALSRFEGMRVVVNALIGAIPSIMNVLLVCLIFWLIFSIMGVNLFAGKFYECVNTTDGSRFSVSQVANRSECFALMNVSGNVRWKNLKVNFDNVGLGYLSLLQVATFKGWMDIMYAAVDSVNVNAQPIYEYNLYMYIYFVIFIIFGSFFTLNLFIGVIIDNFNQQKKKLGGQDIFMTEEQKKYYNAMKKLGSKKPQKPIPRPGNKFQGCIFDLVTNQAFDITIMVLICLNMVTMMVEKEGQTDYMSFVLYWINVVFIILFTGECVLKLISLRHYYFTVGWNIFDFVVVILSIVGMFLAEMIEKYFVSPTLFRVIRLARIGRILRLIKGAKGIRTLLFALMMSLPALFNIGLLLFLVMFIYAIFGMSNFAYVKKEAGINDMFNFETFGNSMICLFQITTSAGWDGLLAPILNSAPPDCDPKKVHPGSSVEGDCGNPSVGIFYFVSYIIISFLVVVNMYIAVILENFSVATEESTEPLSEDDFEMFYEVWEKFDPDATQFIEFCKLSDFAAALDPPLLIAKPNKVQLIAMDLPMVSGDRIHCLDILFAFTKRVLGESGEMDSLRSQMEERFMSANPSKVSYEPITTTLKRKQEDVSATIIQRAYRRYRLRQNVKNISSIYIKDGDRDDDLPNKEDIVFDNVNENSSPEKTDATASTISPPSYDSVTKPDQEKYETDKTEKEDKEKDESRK
hERG K+ channel, sequence (Q12809 whole entry): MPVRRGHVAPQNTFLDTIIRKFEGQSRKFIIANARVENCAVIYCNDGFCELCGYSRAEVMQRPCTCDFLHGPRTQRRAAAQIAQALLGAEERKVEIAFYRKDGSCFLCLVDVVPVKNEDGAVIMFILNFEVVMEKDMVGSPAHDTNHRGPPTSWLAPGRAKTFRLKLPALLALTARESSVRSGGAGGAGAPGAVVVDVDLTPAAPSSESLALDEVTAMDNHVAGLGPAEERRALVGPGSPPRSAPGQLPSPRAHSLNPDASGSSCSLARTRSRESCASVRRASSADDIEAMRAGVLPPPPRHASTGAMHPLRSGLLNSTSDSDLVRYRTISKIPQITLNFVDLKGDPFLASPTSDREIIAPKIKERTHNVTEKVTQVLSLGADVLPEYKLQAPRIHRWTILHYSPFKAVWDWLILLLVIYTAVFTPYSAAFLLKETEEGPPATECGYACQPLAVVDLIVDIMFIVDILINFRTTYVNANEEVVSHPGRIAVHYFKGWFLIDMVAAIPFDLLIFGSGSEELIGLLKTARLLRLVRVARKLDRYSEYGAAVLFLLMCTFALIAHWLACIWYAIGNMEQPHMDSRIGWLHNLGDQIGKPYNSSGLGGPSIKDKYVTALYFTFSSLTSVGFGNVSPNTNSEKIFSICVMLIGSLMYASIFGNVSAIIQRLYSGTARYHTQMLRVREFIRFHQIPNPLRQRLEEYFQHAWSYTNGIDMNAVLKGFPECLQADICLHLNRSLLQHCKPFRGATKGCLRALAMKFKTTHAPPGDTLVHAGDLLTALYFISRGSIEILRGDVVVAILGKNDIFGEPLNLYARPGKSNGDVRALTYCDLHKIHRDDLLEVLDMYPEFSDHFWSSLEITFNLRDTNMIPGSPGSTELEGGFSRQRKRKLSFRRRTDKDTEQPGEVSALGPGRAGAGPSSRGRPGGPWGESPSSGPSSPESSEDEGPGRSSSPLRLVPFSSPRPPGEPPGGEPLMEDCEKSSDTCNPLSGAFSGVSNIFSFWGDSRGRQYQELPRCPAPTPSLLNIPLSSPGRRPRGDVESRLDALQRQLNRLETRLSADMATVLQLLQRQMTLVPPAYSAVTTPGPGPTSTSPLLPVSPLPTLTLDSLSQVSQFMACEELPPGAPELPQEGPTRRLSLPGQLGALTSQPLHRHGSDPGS
CYP2C19, sequence (P33261 whole entry): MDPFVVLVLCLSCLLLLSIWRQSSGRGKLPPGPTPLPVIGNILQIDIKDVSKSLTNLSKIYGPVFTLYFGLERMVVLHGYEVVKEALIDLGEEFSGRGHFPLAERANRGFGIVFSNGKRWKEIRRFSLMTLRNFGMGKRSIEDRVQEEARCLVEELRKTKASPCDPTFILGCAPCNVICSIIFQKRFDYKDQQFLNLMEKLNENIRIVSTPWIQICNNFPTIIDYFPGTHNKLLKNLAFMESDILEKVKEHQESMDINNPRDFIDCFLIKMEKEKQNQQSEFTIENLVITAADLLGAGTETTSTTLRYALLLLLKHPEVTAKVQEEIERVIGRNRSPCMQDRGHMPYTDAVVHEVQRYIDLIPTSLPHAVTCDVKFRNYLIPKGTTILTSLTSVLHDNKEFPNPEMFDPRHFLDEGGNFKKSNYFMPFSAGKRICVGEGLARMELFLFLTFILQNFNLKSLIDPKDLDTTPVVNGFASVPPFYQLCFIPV
CYP2C9, sequence (P11712 whole entry): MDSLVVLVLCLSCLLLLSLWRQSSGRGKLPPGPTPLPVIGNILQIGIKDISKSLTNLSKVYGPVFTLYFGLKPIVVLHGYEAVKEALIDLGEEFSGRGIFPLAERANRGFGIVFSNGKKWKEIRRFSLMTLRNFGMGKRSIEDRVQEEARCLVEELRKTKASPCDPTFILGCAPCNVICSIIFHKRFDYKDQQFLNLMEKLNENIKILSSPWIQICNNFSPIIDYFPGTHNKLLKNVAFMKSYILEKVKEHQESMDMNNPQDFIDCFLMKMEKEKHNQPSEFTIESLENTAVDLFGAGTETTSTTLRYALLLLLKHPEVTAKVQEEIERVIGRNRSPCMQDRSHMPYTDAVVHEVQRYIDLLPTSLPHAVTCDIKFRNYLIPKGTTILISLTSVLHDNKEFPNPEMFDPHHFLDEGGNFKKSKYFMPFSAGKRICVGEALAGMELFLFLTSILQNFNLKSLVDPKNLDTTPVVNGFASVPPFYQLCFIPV
CYP2D6, sequence (P10635 whole entry): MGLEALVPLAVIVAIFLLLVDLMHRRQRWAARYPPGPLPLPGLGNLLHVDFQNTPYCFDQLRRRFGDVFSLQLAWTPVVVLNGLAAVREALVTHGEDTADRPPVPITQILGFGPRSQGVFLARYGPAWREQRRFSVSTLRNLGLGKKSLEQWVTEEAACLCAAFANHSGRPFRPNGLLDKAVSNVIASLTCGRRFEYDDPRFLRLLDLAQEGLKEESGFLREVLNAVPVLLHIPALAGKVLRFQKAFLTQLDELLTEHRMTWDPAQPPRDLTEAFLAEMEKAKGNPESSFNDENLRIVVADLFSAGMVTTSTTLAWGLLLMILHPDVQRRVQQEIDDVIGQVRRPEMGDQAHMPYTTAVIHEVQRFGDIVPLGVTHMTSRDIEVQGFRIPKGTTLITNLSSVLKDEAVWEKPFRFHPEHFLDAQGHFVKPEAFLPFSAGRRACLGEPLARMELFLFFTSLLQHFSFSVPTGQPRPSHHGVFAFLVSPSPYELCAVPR

COC[C@@H](NC(C)=O)C(=O)NCc1ccccc1 [(R)-1, (R)-N-benzyl 2-N-acetamido-3-methoxypropionamide]
Tox TD50 (behavioral toxicity) (behavioral toxicity): >500 [0.5] mg/kg | IC50 [1]: 85 µM | scMet seizure model: activity [2]: no activity

COC[C@@H](NC(C)=O)C(=O)NCc1ccc(Oc2ccccc2)cc1 [(R)-3, (R)-N-4′-Phenoxybenzyl 2-N-Acetamido-3-methoxypropionamide]
ED50 [3]: 10 to 30 mg/kg | ED50 [4]: 10 to 30 mg/kg | TD50 at 0.5 h [5]: 30 to 100 mg/kg

COC[C@@H](NC(C)=O)C(=O)NCc1ccc(Oc2cccc(F)c2)cc1 [(R)-4]
Tox TD50 (behavioral toxicity) (behavioral toxicity): >10 [0.25–4.0] mg/kg | 6 Hz ED50 [6]: ~10 [0.25–0.5] mg/kg | MES ED50 [7]: <10 [0.25–4.0] mg/kg

COC[C@@H](NC(C)=O)C(=O)NCc1ccc(Oc2cccc(Cl)c2)cc1 [(R)-5, (R)-N-4′-((3″-Chloro)phenoxy)benzyl 2-N-Acetamido-3-methoxypropionamide]
Effect on transition of VGSCs to the slow-inactivated state [8]: facilitated the transition of a majority of sodium channels into the slow-inactivated state

COC[C@@H](NC(C)=O)C(=O)NCc1ccc(Oc2cccc(C(F)(F)F)c2)cc1 [(R)-7, (R)-N-4′-((3″-Trifluoromethyl)phenoxy)benzyl2-N-Acetamido-3-methoxypropionamide]
ED50 [3]: 10 to 100 mg/kg

COC[C@@H](NC(C)=O)C(=O)NCc1ccc(Oc2cccc(OC)c2)cc1 [(R)-8, (R)-N-4′-((3″-Methoxy)phenoxy)benzyl 2-N-Acetamido-3-methoxypropionamide]
ED50 [3]: 30 to 100 mg/kg

COC[C@@H](NC(C)=O)C(=O)NCc1ccc(Oc2cccc(OC(F)(F)F)c2)cc1 [(R)-9, (R)-N-4′-((3″-Trifluoromethoxy)phenoxy)benzyl2-N-Acetamido-3-methoxypropionamide]
Direct inhibition of CYP1A2 (CYP1A2): little or no direct inhibition | Direct inhibition of CYP2C9 (CYP2C9): little or no direct inhibition | Direct inhibition of CYP2D6 (CYP2D6): little or no direct inhibition | Direct inhibition of CYP2C8 (CYP2C8): little or no direct inhibition | Steady-state activation properties vs control [9]: no different | Effect on hERG K+ channel activity (hERG K+ channel): did not affect | Direct inhibition of CYP2B6 (CYP2B6): little or no direct inhibition | Direct inhibition of CYP2C19 (CYP2C19): little or no direct inhibition | Direct inhibition of CYP3A4/5 (CYP3A4/5): little or no direct inhibition

C[C@H](NCc1ccc(OCc2cccc(F)c2)cc1)C(N)=O [(S)-2, (S)-2-(4′-((3″-fluoro)benzyloxy)benzyl)aminopropionamide]
IC50 [1]: 13 µM | MES ED50 [10]: 4.1 (3.0–5.5) mg/kg | MES ED50 ([7]; 95% CI in parentheses): 12 (10–14) mg/kg

O=C1NC(=O)C(c2ccccc2)(c2ccccc2)N1 [phenytoin]
MES ED50 [11]: 2.4 (1.4–3.7) mg/kg | MES ED50 ([7]; 95% CI in parentheses): 28 (21–35) mg/kg
